Reference: US20120214710A1, “METHOD OF PREDICTING RESPONSE TO THALIDOMIDE IN MULTIPLE MYELOMA PATIENTS” (Dublin City University, priority 2009, published 2012)

What was measured:
[1] = use in myeloma; cited from earlier work
Multiple Myeloma = test: Day-100 re-staging (IMWG uniform response criteria) of newly diagnosed MM patients on thalidomide-based regimens; format: in vivo, human
Protocol: Serum samples from 51 consecutive newly diagnosed MM patients who were having initial treatment with thalidomide-based regimens were analyzed. Samples were obtained at diagnosis and prior to commencement of therapy. The samples were collected according to standard phlebotomy procedures from consented patients. Ethical consent was granted from the Mater Misericordiae University Hospital, Dublin, Ireland ethics committee. 10 ml of blood sample was collected into additive free blood tubes and was allowed to clot for 30 minutes to 1 hour at room temperature. Samples were coded and transported on ice to the laboratory. The serum was denuded by pipette from the clot and place into a clean tube. The tubes were centrifuged at 400 relative centrifugal force (rcf) for 30 minutes at 4° C. Serum was aliquoted in the cryovial tubes, labeled and stored at −80° C. until time of analysis. The time from sample procurement to storage at −80° C. was less than 3 hours. Each serum sample underwent no more than 3 freeze/thaw cycles prior to analysis.
The mean age of the patient group was 68 SD+/−6.95 years (range 52-81 years); 27 were male and 24 female. Based on Day-100 re-staging investigations and using the International Myeloma Working Group (IMWG) uniform response criteria (Rajkumar S V, Buadi F. Multiple myeloma: new staging systems for diagnosis, prognosis and response evaluation. Best Pract Res Clin Haematol. 2007; 20:665-680; Durie B G, Harousseau J L, Miguel J S, et al. International uniform response criteria for multiple myeloma. Leukemia. 2006;20:1467-1473) for MM, 29 responders and 22 non-responders to thalidomide-based therapy were identified. The mean age was 66 SD+/−6.80 years (range, 52-81 years) for responders and 70 SD+/−6.69 years (range, 57-79 years) for non-responders. Based on the ISS classification (Hotta T. [Classification, staging and prognostic indices for multiple myeloma]. Nippon Rinsho. 2007; 65:2161-2166), 6 responding patients had stage I, 15 had stage II and 8 had stage III disease. […] had stage I, 11 had stage II and 9 had stage III disease. In the responders group, 24 patients were treated with thalidomide and dexamethasone (TD), 3 with thalidomide, cyclophosphamide and dexamethasone (CTD) and 2 with melphalan, prednisone and thalidomide (MPT). In the non-responder group, 17 patients received TD, 4 received CTD and 1 patient received MPT. Median follow-up was 13 months (range, 6-21 months). In the responder group, 9 patients achieved complete response (CR) and 20 achieved very good partial response (VGPR). Five non-responders had Stable disease (SD) and the remaining 17 had Progressive disease (PD) (Table I).

[2] = 51 newly diagnosed MM patients, Day-100 re-staging, IMWG criteria

In the case of O=C1CCC(N2C(=O)c3ccccc3C2=O)C(=O)N1 (stereo not drawn) [thalidomide, 2-(2,6-dioxopiperidin-3-yl)-1H-isoindole-1,3(2H)-dione], the serious side effects [1] is listed as “thrombo-embolic disease and peripheral neuropathy”, the “number of non-responders (SD or PD)” value (Multiple Myeloma; [2]) is listed as 22 patients and the “number of responders (CR or VGPR)” value (Multiple Myeloma; [2]) is listed as 29 patients. For the same compound, the “patients with Progressive disease (PD)” value (Multiple Myeloma; non-responder group, n=22) was 17 patients, the “patients achieving complete response (CR)” value (Multiple Myeloma; responder group, n=29) was 9 patients and the “patients achieving very good partial response (VGPR)” value (Multiple Myeloma; responder group, n=29) was 20 patients.
